Laboratory results from ChEMBL document CHEMBL3885881, “DrugMatrix”.

Organism: Rattus norvegicus
Assay: DrugMatrix - Regimen: Daily Repeat
Type: toxicity, organism-based, Sprague-Dawley
Set-up: regimen Daily Repeat, gender Male, age 6-8 weeks
Details: in vivo, po, route oral GAVAGE, […]; for ABSOLUTE BASOPHIL / ABSOLUTE EOSINOPHIL / ABSOLUTE LYMPHOCYTE / ABSOLUTE MONOCYTE / ABSOLUTE SEGMENTED NEUTROPHIL / BASOPHIL / EOSINOPHIL / ERYTHROCYTE COUNT / HEMATOCRIT / HEMOGLOBIN / LEUKOCYTE COUNT / LYMPHOCYTE / MEAN CORPUSCULAR HEMOGLOBIN / MEAN CORPUSCULAR HEMOGLOBIN CONCENTRATION / MEAN CORPUSCULAR VOLUME / MONOCYTE / NEUTROPHIL / NUCLEATED RED BLOOD CELLS / PLATELET COUNT: tissue Blood; for ALANINE AMINOTRANSFERASE / ALBUMIN / ALKALINE PHOSPHATASE / ASPARTATE AMINOTRANSFERASE / BLOOD UREA NITROGEN / CARBON DIOXIDE / CHLORIDE / CHOLESTEROL / CREATINE PHOSPHOKINASE / CREATININE / GLUCOSE / LACTATE DEHYDROGENASE / LIPASE / PHOSPHORUS / POTASSIUM / SODIUM / TOTAL BILIRUBIN / TOTAL PROTEIN / URIC ACID: tissue Plasma
[1] = 18 mg/kg, 72 h, dose level High, time 3 day
[2] = 18 mg/kg, 120 h, dose level High, time 5 day
[3] = 72 h, dose 0.28 mg/Kg, dose level Low, time 3 day
[4] = 120 h, dose 0.28 mg/Kg, dose level Low, time 5 day

CC(C(=O)O)c1ccc(CC2CCCC2=O)cc1 (configuration not stated) [LOXOPROFEN]
ABSOLUTE BASOPHIL [1]: 0 CELLS/uL | ABSOLUTE EOSINOPHIL [1]: 0 CELLS/uL | ABSOLUTE LYMPHOCYTE [1]: 12885.33 CELLS/uL | ABSOLUTE MONOCYTE [1]: 42.67 CELLS/uL | ABSOLUTE SEGMENTED NEUTROPHIL [1]: 1338.67 CELLS/uL | BASOPHIL [1]: 0% | EOSINOPHIL [1]: 0% | ERYTHROCYTE COUNT [1]: 5.2 x10E6/uL | HEMATOCRIT [1]: 32.2% | HEMOGLOBIN [1]: 13.03 G/DL | LEUKOCYTE COUNT [1]: 14.27 x10E3/uL | LYMPHOCYTE [1]: 90.67% | MEAN CORPUSCULAR HEMOGLOBIN [1]: 25.1 pg | MEAN CORPUSCULAR HEMOGLOBIN CONCENTRATION [1]: 40.53 G/DL | MEAN CORPUSCULAR VOLUME [1]: 61.93 fL | MONOCYTE [1]: 0.33% | NEUTROPHIL [1]: 9% | NUCLEATED RED BLOOD CELLS [1]: 0 /100WBC | PLATELET COUNT [1]: 1130.33 x10E3/uL | ALANINE AMINOTRANSFERASE [1]: 76.67 u/L | ALBUMIN [1]: 4.03 G/DL | ALKALINE PHOSPHATASE [1]: 346.33 u/L | ASPARTATE AMINOTRANSFERASE [1]: 93 u/L | BLOOD UREA NITROGEN [1]: 15.67 mg/dL | CARBON DIOXIDE [1]: 30.33 mmol/L | CHLORIDE [1]: 102.33 MEQ/L | CHOLESTEROL [1]: 83 mg/dL | CREATINE PHOSPHOKINASE [1]: 423.33 u/L | CREATININE [1]: 0.36 mg/dL | GLUCOSE [1]: 148.67 mg/dL | LACTATE DEHYDROGENASE [1]: 236.33 u/L | LIPASE [1]: 13 u/L | PHOSPHORUS [1]: 11.07 mg/dL | POTASSIUM [1]: 6.41 MEQ/L | SODIUM [1]: 143.6 MEQ/L | TOTAL BILIRUBIN [1]: 0.27 mg/dL | TOTAL PROTEIN [1]: 5.63 G/DL | URIC ACID [1]: 1.1 mg/dL | ABSOLUTE BASOPHIL [2]: 0 CELLS/uL | ABSOLUTE EOSINOPHIL [2]: 118 CELLS/uL | ABSOLUTE LYMPHOCYTE [2]: 14441.67 CELLS/uL | ABSOLUTE MONOCYTE [2]: 168.67 CELLS/uL | ABSOLUTE SEGMENTED NEUTROPHIL [2]: 1438.33 CELLS/uL | BASOPHIL [2]: 0% | EOSINOPHIL [2]: 1% | ERYTHROCYTE COUNT [2]: 5.58 x10E6/uL | HEMATOCRIT [2]: 34.33% | HEMOGLOBIN [2]: 13.8 G/DL | LEUKOCYTE COUNT [2]: 16.17 x10E3/uL | LYMPHOCYTE [2]: 90% | MEAN CORPUSCULAR HEMOGLOBIN [2]: 24.77 pg | MEAN CORPUSCULAR HEMOGLOBIN CONCENTRATION [2]: 40.2 G/DL | MEAN CORPUSCULAR VOLUME [2]: 61.53 fL | MONOCYTE [2]: 1% | NEUTROPHIL [2]: 8% | NUCLEATED RED BLOOD CELLS [2]: 0 /100WBC | PLATELET COUNT [2]: 1237 x10E3/uL | ALANINE AMINOTRANSFERASE [2]: 60.67 u/L | ALBUMIN [2]: 4.13 G/DL | ALKALINE PHOSPHATASE [2]: 356.33 u/L | ASPARTATE AMINOTRANSFERASE [2]: 101 u/L | BLOOD UREA NITROGEN [2]: 17 mg/dL | CARBON DIOXIDE [2]: 27.67 mmol/L | CHLORIDE [2]: 103.33 MEQ/L | CHOLESTEROL [2]: 67.67 mg/dL | CREATINE PHOSPHOKINASE [2]: 434 u/L | CREATININE [2]: 0.18 mg/dL | GLUCOSE [2]: 141 mg/dL | LACTATE DEHYDROGENASE [2]: 660 u/L | LIPASE [2]: 10.67 u/L | PHOSPHORUS [2]: 11.17 mg/dL | POTASSIUM [2]: 5.74 MEQ/L | SODIUM [2]: 144.53 MEQ/L | TOTAL BILIRUBIN [2]: 0.23 mg/dL | TOTAL PROTEIN [2]: 5.77 G/DL | URIC ACID [2]: 1.33 mg/dL | ABSOLUTE BASOPHIL [3]: 0 CELLS/uL | ABSOLUTE EOSINOPHIL [3]: 0 CELLS/uL | ABSOLUTE LYMPHOCYTE [3]: 8216 CELLS/uL | ABSOLUTE MONOCYTE [3]: 105.67 CELLS/uL | ABSOLUTE SEGMENTED NEUTROPHIL [3]: 1111.67 CELLS/uL | BASOPHIL [3]: 0% | EOSINOPHIL [3]: 0% | ERYTHROCYTE COUNT [3]: 5.18 x10E6/uL | HEMATOCRIT [3]: 32.3% | HEMOGLOBIN [3]: 13.07 G/DL | LEUKOCYTE COUNT [3]: 9.43 x10E3/uL | LYMPHOCYTE [3]: 87.33% | MEAN CORPUSCULAR HEMOGLOBIN [3]: 25.23 pg | MEAN CORPUSCULAR HEMOGLOBIN CONCENTRATION [3]: 40.47 G/DL | MEAN CORPUSCULAR VOLUME [3]: 62.37 fL | MONOCYTE [3]: 1% | NEUTROPHIL [3]: 11.67% | NUCLEATED RED BLOOD CELLS [3]: 0 /100WBC | PLATELET COUNT [3]: 1232.67 x10E3/uL | ALANINE AMINOTRANSFERASE [3]: 78.33 u/L | ALBUMIN [3]: 4 G/DL | ALKALINE PHOSPHATASE [3]: 425 u/L | ASPARTATE AMINOTRANSFERASE [3]: 95.33 u/L | BLOOD UREA NITROGEN [3]: 17 mg/dL | CARBON DIOXIDE [3]: 30 mmol/L | CHLORIDE [3]: 101.33 MEQ/L | CHOLESTEROL [3]: 69 mg/dL | CREATINE PHOSPHOKINASE [3]: 495.67 u/L | CREATININE [3]: 0.2 mg/dL | GLUCOSE [3]: 186.33 mg/dL | LACTATE DEHYDROGENASE [3]: 214.33 u/L | LIPASE [3]: 8.67 u/L | PHOSPHORUS [3]: 12.6 mg/dL | POTASSIUM [3]: 6.25 MEQ/L | SODIUM [3]: 143.63 MEQ/L | TOTAL BILIRUBIN [3]: 0.17 mg/dL | TOTAL PROTEIN [3]: 5.5 G/DL | URIC ACID [3]: 1.43 mg/dL | ABSOLUTE BASOPHIL [4]: 0 CELLS/uL | ABSOLUTE EOSINOPHIL [4]: 43.33 CELLS/uL | ABSOLUTE LYMPHOCYTE [4]: 10902.67 CELLS/uL | ABSOLUTE MONOCYTE [4]: 142 CELLS/uL | ABSOLUTE SEGMENTED NEUTROPHIL [4]: 678.67 CELLS/uL | BASOPHIL [4]: 0% | EOSINOPHIL [4]: 0.33% | ERYTHROCYTE COUNT [4]: 5.61 x10E6/uL | HEMATOCRIT [4]: 35.07% | HEMOGLOBIN [4]: 14.17 G/DL | LEUKOCYTE COUNT [4]: 11.77 x10E3/uL | LYMPHOCYTE [4]: 93% | MEAN CORPUSCULAR HEMOGLOBIN [4]: 25.23 pg | MEAN CORPUSCULAR HEMOGLOBIN CONCENTRATION [4]: 40.4 G/DL | MEAN CORPUSCULAR VOLUME [4]: 62.43 fL | MONOCYTE [4]: 1.33% | NEUTROPHIL [4]: 5.33% | NUCLEATED RED BLOOD CELLS [4]: 0 /100WBC | PLATELET COUNT [4]: 984.33 x10E3/uL | ALANINE AMINOTRANSFERASE [4]: 57 u/L | ALBUMIN [4]: 4.3 G/DL | ALKALINE PHOSPHATASE [4]: 291 u/L | ASPARTATE AMINOTRANSFERASE [4]: 85.33 u/L | BLOOD UREA NITROGEN [4]: 18 mg/dL | CARBON DIOXIDE [4]: 26.67 mmol/L | CHLORIDE [4]: 103.67 MEQ/L | CHOLESTEROL [4]: 68.67 mg/dL | CREATINE PHOSPHOKINASE [4]: 238 u/L | CREATININE [4]: 0.23 mg/dL | GLUCOSE [4]: 187.33 mg/dL | LACTATE DEHYDROGENASE [4]: 153.33 u/L | LIPASE [4]: 11 u/L | PHOSPHORUS [4]: 11.87 mg/dL | POTASSIUM [4]: 5.74 MEQ/L | SODIUM [4]: 144.4 MEQ/L | TOTAL BILIRUBIN [4]: 0.2 mg/dL | TOTAL PROTEIN [4]: 5.83 G/DL | URIC ACID [4]: 1.6 mg/dL
